Laboratory results from ChEMBL document CHEMBL2074493, “Reversal of multidrug resistance-associated protein-mediated drug resistance by the pyridine analog PAK-104P” (Mol Pharmacol, 1997).

Legend:
[1] = target: T1, Multidrug resistance-associated protein 1 (Homo sapiens, UniProt P33527); assay: TP_TRANSPORTER: intracellular accumulation in KB-3-1 and C-A120 cells; type: functional, cell-based, KB-3-1; C-A120
[2] = target: T1, Multidrug resistance-associated protein 1; assay: TP_TRANSPORTER: increase in Vincristine intracellular accumulation (Vincristine: 1 uM, PAK-104P: 10 uM) in KB-3-1 and C-A120 cell; type: functional, cell-based; settings: kb-3-1;c-a120, 10 µM

T1 sequence (P33527 whole entry): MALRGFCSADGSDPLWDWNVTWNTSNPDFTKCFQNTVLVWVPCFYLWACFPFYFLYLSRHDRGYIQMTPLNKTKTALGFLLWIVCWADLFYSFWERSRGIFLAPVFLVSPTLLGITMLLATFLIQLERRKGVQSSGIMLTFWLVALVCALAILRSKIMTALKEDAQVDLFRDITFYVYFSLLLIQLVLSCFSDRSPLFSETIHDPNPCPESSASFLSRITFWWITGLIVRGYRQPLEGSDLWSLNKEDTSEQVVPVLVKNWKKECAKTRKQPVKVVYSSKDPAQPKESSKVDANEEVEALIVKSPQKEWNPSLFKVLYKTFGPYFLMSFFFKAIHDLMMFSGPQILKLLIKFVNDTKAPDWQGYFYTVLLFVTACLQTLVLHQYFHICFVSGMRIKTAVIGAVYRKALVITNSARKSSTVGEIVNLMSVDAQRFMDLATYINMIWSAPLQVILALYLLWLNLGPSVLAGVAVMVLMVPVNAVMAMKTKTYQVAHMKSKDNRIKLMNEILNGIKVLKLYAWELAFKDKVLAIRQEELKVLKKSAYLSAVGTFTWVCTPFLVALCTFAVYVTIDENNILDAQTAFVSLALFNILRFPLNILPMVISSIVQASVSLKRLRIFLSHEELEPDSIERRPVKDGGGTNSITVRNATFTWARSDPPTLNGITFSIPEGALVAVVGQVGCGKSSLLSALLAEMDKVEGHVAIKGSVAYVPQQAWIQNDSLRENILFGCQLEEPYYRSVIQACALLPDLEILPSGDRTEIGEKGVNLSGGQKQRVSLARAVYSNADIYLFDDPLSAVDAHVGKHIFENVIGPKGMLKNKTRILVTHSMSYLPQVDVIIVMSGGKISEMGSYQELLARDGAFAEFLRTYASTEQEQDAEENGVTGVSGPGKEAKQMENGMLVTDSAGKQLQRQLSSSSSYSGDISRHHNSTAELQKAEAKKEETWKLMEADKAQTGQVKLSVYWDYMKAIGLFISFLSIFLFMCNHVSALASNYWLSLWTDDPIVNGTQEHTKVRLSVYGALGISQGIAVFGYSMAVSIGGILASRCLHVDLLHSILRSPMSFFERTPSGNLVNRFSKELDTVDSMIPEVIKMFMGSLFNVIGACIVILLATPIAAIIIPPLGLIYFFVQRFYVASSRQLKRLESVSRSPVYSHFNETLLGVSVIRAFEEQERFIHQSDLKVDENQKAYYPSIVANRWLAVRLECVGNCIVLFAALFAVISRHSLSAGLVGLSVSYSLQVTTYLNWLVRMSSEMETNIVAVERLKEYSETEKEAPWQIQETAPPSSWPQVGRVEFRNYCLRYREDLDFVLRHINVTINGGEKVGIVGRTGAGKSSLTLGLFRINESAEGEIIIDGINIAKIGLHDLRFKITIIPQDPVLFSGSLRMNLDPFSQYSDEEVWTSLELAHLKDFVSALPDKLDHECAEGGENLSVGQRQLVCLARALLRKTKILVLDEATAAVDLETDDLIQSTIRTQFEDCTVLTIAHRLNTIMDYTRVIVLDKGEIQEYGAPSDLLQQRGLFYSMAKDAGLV

Row | SMILES | Activity [1] | Activity [2]
1 | CC[C@]1(O)C[C@H]2CN(CCc3c([nH]c4ccccc34)[C@@](C(=O)OC)(c3cc4c(cc3OC)N(C=O)[C@H]3[C@@](O)(C(=O)OC)[C@H](OC(C)=O)[C@]5(CC)C=CCN6CC[C@]43[C@@H]65)C2)C1 [VINCRISTINE] | substrate [+] | 
2 | Cc1nc(C)c(P2(=O)O[C@H](C)C[C@@H](C)O2)c(-c2cccc([N+](=O)[O-])c2)c1C(=O)OCCN1CCN(C(c2ccccc2)c2ccccc2)CC1 (some centres not stated) |  | inhibitor [1.3 to 1.7-fold]
